Assay results reported in patent publication US20180171411A1, “GFRalpha1 AS A BIOMARKER FOR CISPLATIN-INDUCED CHEMORESISTANCE AND METASTASIS” (THE BOARD OF REGENTS OF THE UNIVERSITY OF TEXAS SYSTEM, priority 2015, published 2018).

How the values were obtained:
[1] = system: GFRα1-deficient MG-63 and U-2 OS cells; assay: WST-1 cell viability of GFRα1-deficient (siRNA) osteosarcoma cells; format: cell-based, human; conditions: GFRα1 siRNA 48 h, then agent 24 h
Description: FIG. 6. Cell viability of GFRα1-deficient osteosarcoma cells after treatment of chemotherapeutic agents. MG-63 and U-2 OS cells were transfected with either control siRNA or GFRα1 siRNA for 48 h and then treated with different concentrations of doxorubicin, cisplatin, or methotrexate for 24 h. Cell viability was measured using the WST-1 assay. The values are represented as a mean±s.d.m. (n=3). ** denotes P<0.05 by t-test. (a) MG-63 cells. (b) U-2 OS cells.
Small interfering RNA (siRNA)-based Experiments. Human GFRα1 siRNA, Beclin 1 siRNA, HMGB1 siRNA, AMPK siRNA, c-Src siRNA, NFκB p50 siRNA, APE siRNA and Negative (control) siRNA were purchased from Santa Cruz Biotechnology. Cell lines were transiently transfected with siRNA duplexes using Lipofectamine® RNAiMAX (Life Technologies) according to manufacturer's instructions.
Cell viability assays. WST-1 cell viability assay reagent was purchased from Roche. Equal numbers of cells were seeded in triplicate wells in 48-well plates and maintained in growth medium containing 10% FBS). Cells were cultured with PBS, GDNF (50 ng/mL), GDNF (50 ng/ml)+cisplatin (20 μM), or cisplatin (20 μM) in the presence of serum for 24 hr. Cells were also preincubated with inhibitors (3-MA, PP1, Compound C, Baf and CQ) for 1 hr before stimulating with PBS, GDNF, GDNF+cisplatin, or cisplatin. WST-1 reagent was then treated to the cells at the indicated times and incubated for 2 hr at 37° C. Cell viability was determined by measuring the absorbance after adding WST-1. The spectrophotometric absorbance of the samples was measured using an Ultra Multifunctional Microplate Reader (Tecan, Durham, N.C.) at 450 nm. Experiments were done at least in triplicate using separate cultures.

[2] = system: GFRα1 expression in MG-63 and U-2 OS cells; assay: Immunoblot of GFRα1 expression after chemotherapeutic agents; format: cell-based, human; conditions: doxorubicin 5 μM, cisplatin 20 μM, methotrexate 1 mM, 24 hr
Description: FIG. 1. Cisplatin induces GFRα1 expression in osteosarcoma cells. (a-c) Immunoblot analysis of osteosarcoma cell lysates with antibodies specific for GFRα1 and β-actin. (a) MG-63 and U-2 OS cells were treated with doxorubicin (5 μM), cisplatin (20 μM), or methotrexate (1 mM) for 24 hr. Immunoblot analysis of GFRα1 (left) and quantification of GFRα1 expression (right) after treatment of chemotherapeutic agents. (b) MG-63 and U-2 OS cells were treated with different concentrations of cisplatin for 24 hr. (c) MG-63 and U-2 OS cells were treated with cisplatin (20 μM) and collected at the indicated time. (d and e) Quantitative real-time PCR of GFRα1 mRNA expression after cisplatin treatment. Representative images (top) and quantitative analysis (bottom) of GFRα1 mRNA expression. The values are presented as a mean±s.d.m (n=3). ** denotes p<0.05 by t-test. (d) MG-63 and U-2 OS cells were treated with different concentrations of cisplatin for 24 hr. (e) MG-63 and U-2 OS cells were treated with cisplatin (20 μM) and collected at the indicated time.
Immunoblotting. Cells were washed with PBS and lysed in RIPA Buffer (Pierce, Rockford, Ill.). The protein content was determined using a dye-binding microassay (Bio-Rad, Hercules, Calif.), and 10-50 μg protein per lane was electrophoresed on 4-12% SDS polyacrylamide gels. Proteins were blotted onto Hybond ECL membranes (Amersham Pharmacia Biotech, Piscataway, N.J.). Two protein ladders were used for molecular weight determination (GenDEPOT, Barker, Tex.). The blotted proteins were detected using an enhanced chemiluminescence detection system (iNtRON, Seoul, Korea). Data were quantified and analyzed with Image-J software.

[3] = system: cytoplasmic HMGB1 in MG-63/GFRα1 tumors; assay: Immunofluorescence of HMGB1 in xenograft tumors; format: in vivo, mouse; conditions: tumors of MG-63/GFRα1 cell grafted mice
Description: FIG. 5. GFRα1-mediated autophagy promotes chemoresistance and tumor growth in vivo. (a) BALB/c nude mice (n =40) were injected with MG-63 cells that were transfected with either control or GFRα1 expressing vector. Tumor volume was measured every 3 or 4 days. Data are shown as mean±SEM. ** p<0.05. (b) BALB/c nude mice (n=20) were injected with MG-63 cells that were transfected with either control or GFRα1 shRNA. Tumor volume was measured every 3 or 4 days. Data are shown as mean±SEM. ** p<0.05. (c) Tumors that were generated from mice injected with MG-63 cells containing GFRα1 expressing vector were directly injected with PBS, CQ, cisplatin, or cisplatin+CQ. Tumor volume was measured every 4 days. […] Right, quantitative analysis of percentage of cytoplasmic HMGB1-positive cells in HMGB1-positive tumors. […] Right, quantitative analysis of percentage of TUNEL-positive cells in HMGB1-positive tumors. […]
Immunohistochemistry. […] For immunofluorescence, immunohistochemistry of patient tissues and mouse tumors are incubated with the Alexa Fluor 488- and 647-conjugated secondary antibodies (Invitrogen), and nuclei were counterstained with DAPI (Sigma-Aldrich) Immunofluorescence was detected by confocal microscopy. […] Thus, marked plus (+) was considered to be positive immunoreactivity, while that minus (−) was considered to be negative immunoreactivity (not detected). […]

For `N.N.[Cl][Pt][Cl]` [cisplatin, Cis-Diamineplatinum(II) dichloride], the “cell proliferation of GFRα1-deficient cells compared to control cells” value [1] was “significantly reduced”, the “level of GFRα1 expression” value [2] was “significantly increased” and the “HMGB1 expression localized in the cytoplasm” value [3] was “significant increase”.
